The target of one assay is T1, PI3Kalpha (Homo sapiens, UniProt P42336).
T1 construct: His (N); made in house; host or cells: SF9 insect cells (baculovirus co-infection)
As to the kind of experiment: Inhibition of PI3Kalpha-induced PIP-2 phosphorylation (filter-binding assay, 33P-ATP). As to conditions: PI3 Kinase alpha (p85alpha/His-p110alpha), 1 μM ATP; read-out: IC50 PI3Kα. The assay is classed as biochemical. As for the experimental part:
Biological Methods Inhibition of PI3Kalpha-Induced PIP-2 Phosphorylation
See also J. A. Engelman, Nature Reviews Cancer, 2009, 9, 550-562; A. Carnero, Expert Opin. Investig. Drugs, 2009, 18, 1265-1277 and P. Liu et al., Nature Reviews Drug Discovery, 2009, 8, 627-64.
Method Type: Filter-Binding-Assay
Aliquoted in desired amounts and stored at −80° C. […] Assay Procedure
The substrate-containing lipid vesicles are dissolved to a concentration of 0.637 mg lipid blend/ml assay buffer (with BSA, freshly added) in 50 ml Falcon ->keep on ice, followed by ultrasonication (pulse of 15 sec followed by a pause of 10 sec, 4×). Compounds are serially diluted in assay buffer+6% DMSO and 10 μl of each dilution is added per well of a 96-well plate (compounds are tested in duplicates) and mixed with 30 μl of the lipid vesicles containing PDGFR-Peptide (0.5 μM final) and PI3K alpha (25 ng/well final). The mixture is then incubated for 20 minutes at room temperature.
Subsequently, 20 μl of assay buffer containing 3 μM cold ATP and 0.5 μCi/20 μl 33P-ATP are added. The plates are then incubated at room temperature for 120 minutes (shaking with 300 rpm).
The reaction mix is transferred onto filter plates using “filtermate harvester” from Packard: filter plates are rinsed with PBS, then the reaction mix is filtered onto the filter plate, washed 5 times with PBS and are allowed to dry for 30-60 minutes at 50° C. The plate bottom is sealed with Perkin Elmer white adhesive foil and 25 μl/well Microscint0 are added, the top is covered with transparent adhesive foil and the plate is measured with Wallac Trilux 1450 Microbeta Counter.
As positive control serve wells containing vehicle controls (1% DMSO in assay buffer), showing non-inhibited kinase activity (high values). Wells containing assay buffer instead of enzyme can serve as control for background activity (low values).
Calculate IC50 values using the Smiley program (based on GrapPad Prism)

The next assay deals with H460 cells. As to the kind of experiment: alamarBlue H460 cell assay (antiproliferative/cytotoxicity). In kind it is cell-based. Particulars: NCI-H460; H460 human lung carcinoma cells. The source says:
(§1) The H460, MB453, U87, MCF7 and BT474 alamarBlue cell assays provide EC50 values indicative of the antiproliferative or cytotoxic effects of the compounds to respectively the H460 (human non small cell line cancer), MB-453 (breast cancer cell line), U87 (glioblastoma cell line), MCF7 (breast cancer cell line) and BT474 (breast cancer cell line). As known in the field, antiproliferative or cytotoxic effect against this cell lines would be expected to be indicative of activity in treating lung, breast and brain cancers. See R. Marone R et al. Biochim. Biophys. Acta. 2008 January; 1784(1):159-85. S. Yaguchi et al., J. Natl. Cancer Inst. 2006 Apr. 19; 98(8):545-56.
(§2) Method Type: Antiproliferative/Cytotoxicity
(§3) alamarBlue® is designed to provide a rapid and sensitive measure of cell proliferation and cytotoxicity in various human and animal cell lines. The assay is based on the reduction of alamarBlue in the reducing environment of living (metabolically active) cells. In the presence of added cytotoxic or antiproliferative compounds, the innate metabolic activity ceases.
(§4) AlamarBlue is soluble and stable in culture medium. Measurements are made fluorometrically by exciting at 530-560 nm and measuring emission at 590 nm. In reporting percent alamarBlue reduction by monitoring fluorescence, data are expressed as fluorescence emission intensity units as a function of time of incubation.
(§5) 3. Equipment • 96-well plates, flat bottom (Falcon, Cat. No.: 353072) • 96-well plates, U-shaped (Costar, Cat. No.: 3799) • CO2-Incubator • Microplate Reader, Spectramax Plus, Molecular Devices 4. Typical Procedure • Day 0: Seed 3000 BT-474 cells (IMDM/5% FCS, 1% NEAA, 1% Sodiumpyruvat) in 150 μl medium into a 96-well plate, flat bottom (include mediumblank). Incubate plates at 37° C. in a CO2 incubator overnight. • Day 1: Dilute compounds to a concentration 40 μM ->1:3 in medium, 10 dilution steps, in 96-well plates. • Add 50 μl per well of each dilution (total volume per well 200 μl; final conc. of cpds: 10 μM ->1:3). If required, test further dilutions. • All concentrations are tested in duplicates. • Controls: Cells w/o cpd. (+50 μl medium/DMSO). • Cells are incubated with compounds for 5-6 days. • Day 6 or 7: Add 25 μl of alamarBlue solution to each well and incubate for 8 hours at 37° C. Measure fluorescence by exciting at 530-560 nm and measuring emission at 590 nm 5. Evaluation • Subtract average value for medium blank from sample readings • Calculate EC50 using GraphPad Prism (Fifty)
A general note: Alamar Blue is a resazurin reagent that responds to reducing activity.

Another assay relates to MCF7 cells. As to the kind of experiment: alamarBlue MCF7 cell assay (antiproliferative/cytotoxicity). The assay is classed as cell-based. Particulars: MCF7 human breast cancer cell line.
Text: as §1, §2, §3, §4, §5

In the next assay the test system is BT474 cells. Nature of the assay: alamarBlue BT474 cell assay (antiproliferative/cytotoxicity). The assay is classed as cell-based. Particulars: BT-474 human breast cancer cell line, 5-6 days incubation.
Text: as §1, §2, §3, §4, §5

T1 sequence (P27986 whole entry): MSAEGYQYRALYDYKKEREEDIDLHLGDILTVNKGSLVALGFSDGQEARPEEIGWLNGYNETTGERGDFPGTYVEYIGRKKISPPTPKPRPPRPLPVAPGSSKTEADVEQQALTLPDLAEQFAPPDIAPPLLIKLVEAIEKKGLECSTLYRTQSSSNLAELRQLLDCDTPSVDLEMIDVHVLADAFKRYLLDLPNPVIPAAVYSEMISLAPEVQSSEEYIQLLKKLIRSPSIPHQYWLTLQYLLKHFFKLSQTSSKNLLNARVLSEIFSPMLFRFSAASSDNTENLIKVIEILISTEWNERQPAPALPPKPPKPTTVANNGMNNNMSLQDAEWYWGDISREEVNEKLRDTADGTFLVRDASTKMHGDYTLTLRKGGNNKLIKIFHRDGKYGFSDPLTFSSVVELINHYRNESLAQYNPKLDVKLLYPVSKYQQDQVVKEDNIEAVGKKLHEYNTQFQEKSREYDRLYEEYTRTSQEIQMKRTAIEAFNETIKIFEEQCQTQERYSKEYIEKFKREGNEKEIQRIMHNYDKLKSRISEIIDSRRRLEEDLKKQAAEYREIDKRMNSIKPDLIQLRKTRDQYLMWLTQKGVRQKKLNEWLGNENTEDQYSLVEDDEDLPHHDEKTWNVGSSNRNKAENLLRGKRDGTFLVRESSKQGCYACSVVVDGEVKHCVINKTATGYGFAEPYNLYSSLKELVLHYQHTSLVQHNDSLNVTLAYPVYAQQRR
T1 sequence (P42336 whole entry): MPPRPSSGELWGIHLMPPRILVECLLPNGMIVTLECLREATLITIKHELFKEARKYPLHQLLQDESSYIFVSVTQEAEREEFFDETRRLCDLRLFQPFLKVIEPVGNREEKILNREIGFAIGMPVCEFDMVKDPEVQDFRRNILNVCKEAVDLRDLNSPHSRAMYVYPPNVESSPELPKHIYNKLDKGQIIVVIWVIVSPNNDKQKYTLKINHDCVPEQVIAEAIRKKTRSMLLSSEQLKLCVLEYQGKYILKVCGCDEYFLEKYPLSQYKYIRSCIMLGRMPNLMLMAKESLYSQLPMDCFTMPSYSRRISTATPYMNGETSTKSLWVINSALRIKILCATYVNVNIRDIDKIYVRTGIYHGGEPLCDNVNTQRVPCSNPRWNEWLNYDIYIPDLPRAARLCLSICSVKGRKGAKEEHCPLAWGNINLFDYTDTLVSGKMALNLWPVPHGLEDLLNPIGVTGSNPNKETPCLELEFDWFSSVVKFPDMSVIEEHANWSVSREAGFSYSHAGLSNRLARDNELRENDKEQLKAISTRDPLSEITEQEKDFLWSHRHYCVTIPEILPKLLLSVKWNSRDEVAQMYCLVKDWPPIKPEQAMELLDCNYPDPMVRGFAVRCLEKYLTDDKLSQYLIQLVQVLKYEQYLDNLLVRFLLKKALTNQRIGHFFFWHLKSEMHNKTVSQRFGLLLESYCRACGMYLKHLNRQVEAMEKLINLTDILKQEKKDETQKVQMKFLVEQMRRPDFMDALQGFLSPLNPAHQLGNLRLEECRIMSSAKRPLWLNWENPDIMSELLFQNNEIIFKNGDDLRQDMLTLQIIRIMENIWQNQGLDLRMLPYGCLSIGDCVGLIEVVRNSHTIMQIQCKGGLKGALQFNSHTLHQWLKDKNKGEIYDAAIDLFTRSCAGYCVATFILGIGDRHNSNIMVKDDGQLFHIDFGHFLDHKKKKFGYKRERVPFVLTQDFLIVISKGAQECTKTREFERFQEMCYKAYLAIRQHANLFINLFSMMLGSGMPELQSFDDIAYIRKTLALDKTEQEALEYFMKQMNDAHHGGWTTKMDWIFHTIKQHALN

On to `CCc1nc(N)nc(-c2cccnc2)c1C#Cc1cnc(C)c(NS(C)(=O)=O)c1` [Example 12, N-[5-(2-Amino-4-ethyl-6-pyridin-3-yl-pyrimidin-5-ylethynyl)-2-methyl-pyridin-3-yl]-methanesulfonamide], for which the IC50 (in general, the point on the concentration scale where inhibition reaches its midpoint) at PI3Kalpha turned out to be 0.002 µM. Also, in the assay with H460 cells, the EC50 (as a rule, the concentration that produces a half-maximal response) was 1.24 µM. Take `CCc1nc(N)nc(-c2ccc(C3CC3)nc2)c1C#Cc1cnc(C)c(NS(C)(=O)=O)c1` [Example 13, N-{5-[2-Amino-4-(6-cyclopropyl-pyridin-3-yl)-6-ethyl-pyrimidin-5-ylethynyl]-2-methyl-pyridin-3-yl}-methanesulfonamide]: on PI3Kalpha, the IC50 was found to be 0.00074 µM. In addition, the EC50 in the assay with H460 cells is 0.141 µM; in the assay on MCF7 cells, 0.024 µM; in the assay with BT474 cells it was 0.132 µM. For `CCc1nc(N)nc(-c2cccc(F)c2)c1C#Cc1cnc(C)c(NS(C)(=O)=O)c1` [Example 16, N-{5-[2-Amino-4-ethyl-6-(3-fluoro-phenyl)-pyrimidin-5-ylethynyl]-2-methyl-pyridin-3-yl}-methanesulfonamide], the IC50 at PI3Kalpha stood at 0.002 µM. Moreover, in the assay with H460 cells, the EC50 was 0.337 µM. The like results for `CCc1nc(N)nc(-c2ccccc2)c1C#Cc1cnc(C)c(NS(C)(=O)=O)c1` [Example 17, N-[5-(2-Amino-4-ethyl-6-phenyl-pyrimidin-5-ylethynyl)-2-methyl-pyridin-3-yl]-methanesulfonamide] were, in that order, 0.002 µM and 0.172 µM. In the case of `CCc1nc(N)nc(-c2ccc(CN3CCOCC3)cc2)c1C#Cc1cnc(C)c(NS(C)(=O)=O)c1` [Example 18, N-{5-[2-Amino-4-ethyl-6-(4-morpholin-4-ylmethyl-phenyl)-pyrimidin-5-ylethynyl]-2-methyl-pyridin-3-yl}-methanesulfonamide], the concentration for half-maximal inhibition (IC50) on PI3Kalpha amounted to 0.002 µM. For the same compound, the EC50 in the assay on MCF7 cells was 0.118 µM; in the assay on BT474 cells, 0.26 µM. The like results for `CCc1nc(N)nc(-c2cccc(CN(C)C)c2)c1C#Cc1cnc(C)c(NS(C)(=O)=O)c1` [Example 19, N-{5-[2-Amino-4-(3-dimethylaminomethyl-phenyl)-6-ethyl-pyrimidin-5-ylethynyl]-2-methyl-pyridin-3-yl}-methanesulfonamide] were, in that order, 0.006 µM, 0.313 µM and 0.806 µM. As for `CCS(=O)(=O)Nc1cc(C#Cc2c(C)nc(N)nc2-c2ccnc(C)c2)cnc1C` [Example 20, Ethanesulfonic acid {5-[2-amino-4-methyl-6-(2-methyl-pyridin-4-yl)-pyrimidin-5-ylethynyl]-2-methyl-pyridin-3-yl}-amide], at PI3Kalpha, the IC50 came out at 0.014 µM. The same compound displayed a concentration for a half-maximal effect (EC50) in the assay with H460 cells of 1.82 µM. On to `CCc1ncnc(-c2ccc(OC)c(OC)c2C)c1C#Cc1cnc(C)c(NS(C)(=O)=O)c1` [Example 24, N-{5-[4-(3,4-Dimethoxy-2-methyl-phenyl)-6-ethyl-pyrimidin-5-ylethynyl]-2-methyl-pyridin-3-yl}-methanesulfonamide], for which, at PI3Kalpha, the IC50 was 0.028 µM. On the same count and under the same terms, the same measure for `CCc1nc(N)nc(-c2cccc(CN(C)C)c2)c1C#Cc1cnc(C)c(NS(=O)(=O)c2ccc(F)cc2F)c1` [Example 35, N-{5-[2-Amino-4-(3-dimethylaminomethyl-phenyl)-6-ethyl-pyrimidin-5-ylethynyl]-2-methyl-pyridin-3-yl}-2,4-difluoro-benzenesulfonamide]: 0.002 µM; for `CCc1ncnc(-c2c(C)cccc2C)c1C#Cc1cnc(C)c(NS(C)(=O)=O)c1` [Example 58, N-{5-[4-(2,6-Dimethyl-phenyl)-6-ethyl-pyrimidin-5-ylethynyl]-2-methyl-pyridin-3-yl}-methanesulfonamide]: 0.38 µM; for `CCc1ncnc(-c2ccccc2C)c1C#Cc1cnc(C)c(NS(C)(=O)=O)c1` [Example 60, N-[5-(4-Ethyl-6-o-tolyl-pyrimidin-5-ylethynyl)-2-methyl-pyridin-3-yl}-methanesulfonamide]: 0.037 µM. As for `CCc1ncnc(-c2cc(C#N)ccc2F)c1C#Cc1cnc(C)c(NS(C)(=O)=O)c1` [Example 66, N-{5-[4-(5-Cyano-2-fluoro-phenyl)-6-ethyl-pyrimidin-5-ylethynyl]-2-methyl-pyridin-3-yl}-methanesulfonamide], on PI3Kalpha, the IC50 is 0.034 µM.

Regarding `CCc1ncnc(-c2cc(C(F)(F)F)ccc2F)c1C#Cc1cnc(C)c(NS(C)(=O)=O)c1` [Example 67, N-{5-[4-Ethyl-6-(2-fluoro-5-trifluoromethyl-phenyl)-pyrimidin-5-ylethynyl]-2-methyl-pyridin-3-yl}-methanesulfonamide], on PI3Kalpha, the IC50 amounted to 0.046 µM. As for `CCc1ncnc(-c2cc(C(F)(F)F)ccc2OC)c1C#Cc1cnc(C)c(NS(C)(=O)=O)c1` [Example 68, N-{5-[4-Ethyl-6-(2-methoxy-5-trifluoromethyl-phenyl)-pyrimidin-5-ylethynyl]-2-methyl-pyridin-3-yl}-methanesulfonamide], at PI3Kalpha, the IC50 was 0.136 µM.

Regarding `CCc1ncnc(-c2cc(CN)ccc2F)c1C#Cc1cnc(C)c(NS(C)(=O)=O)c1` [Example 77, N-{5-[4-(5-Aminomethyl-2-fluoro-phenyl)-6-ethyl-pyrimidin-5-ylethynyl]-2-methyl-pyridin-3-yl}-methanesulfonamide], the IC50 at PI3Kalpha turned out to be 0.15 µM. For `CCc1ncnc(-c2cccc(CN)c2F)c1C#Cc1cnc(C)c(NS(C)(=O)=O)c1` [Example 79, N-{5-[4-(3-Aminomethyl-2-fluoro-phenyl)-6-ethyl-pyrimidin-5-ylethynyl]-2-methyl-pyridin-3-yl}-methanesulfonamide], the IC50 on PI3Kalpha stood at 0.044 µM. Take `CCc1ncnc(-c2ccc(OC)c(OC)c2OC)c1C#Cc1cnc(C)c(NS(C)(=O)=O)c1` [Example 80, N-{5-[4-Ethyl-6-(2,3,4-trimethoxy-phenyl)-pyrimidin-5-ylethynyl]-2-methyl-pyridin-3-yl}-methanesulfonamide]: the IC50 on PI3Kalpha was 0.043 µM. Regarding `CCc1ncnc(-c2ccnc(C)c2)c1C#Cc1cnc(C)c(NS(=O)(=O)c2ccc(F)cc2Cl)c1` [Example 90, 2-Chloro-N-{5-[4-ethyl-6-(2-methyl-pyridin-4-yl)-pyrimidin-5-ylethynyl]-2-methyl-pyridin-3-yl}-4-fluoro-benzenesulfonamide], the IC50 on PI3Kalpha was determined as 0.002 µM.

Turning to `CCc1ncnc(-c2ccnc(C)c2)c1C#Cc1cnc(C)c(NS(=O)(=O)c2ccc(Br)cc2C)c1` [Example 97, 4-Bromo-N-{5-[4-ethyl-6-(2-methyl-pyridin-4-yl)-pyrimidin-5-ylethynyl]-2-methyl-pyridin-3-yl}-2-methyl-benzenesulfonamide], the IC50 on PI3Kalpha was 0.012 µM. In the assay on BT474 cells, this compound gave an EC50 of 1.53 µM.
